Patent publication US10568876B2, “Tetrahydroisoquinoline derivatives useful as inhibitors of diacylglyceride O-acyltransferase 2” (Merck Sharp & Dohme Corp., priority 2014, dated 2020)

molecular target: hDGAT2 (Homo sapiens (Human), UniProt Q96PD7); assay: DGAT2 Enzymatic Activity Assay; format: biochemical; details: hDGAT2 Sf-9 membrane prep; 25 μM diolein, 10 μM oleoyl-CoA; triolein product by LC/MS/MS; read-out: IC50 values for inhibition of DGAT2
Description: Sf-9 insect cells were maintained in Grace's insect cell culture medium with 10% heated-inactivated fetal bovine serum, 1% Pluronic F-68 and 0.14 μg/ml Kanamycine sulfate in Erlenmeyer flasks at 28° C. in a shaker incubator. After infection with untagged hDGAT2 baculovirus at multiplicity of infection (MOI) 0.1 for 48 hours, cells were harvested. Cell pellets were suspended in buffer containing 10 mM Tris-HCl (pH 7.5), 1 mM EDTA (pH 8.0), 250 mM sucrose and Complete Protease Inhibitor Cocktail (Roche Diagnostics Corp., Indianapolis, Ill.), and sonicated on ice. Membrane fractions were isolated by ultracentrifugation (100,000×g pellet), resuspended in the same buffer, and frozen (−80° C.) for later use. The protein concentration was determined with the BCA Protein Assay kit (Pierce Biotechnology Inc., Rockford, Ill.). Expression of protein levels was analyzed by immunoblotting with goat polyclonal DGAT2 antibody C-15 and donkey anti-goat IgG HRP (Santa Cruz Biotechnology, Inc., Santa Cruz, Calif.) followed by detection with ECL reagent (GE Healthcare, Piscataway, N.J.).
LC/MS/MS analyses were performed using Thermal Fisher's LX4-TSQ Vantage system. This system consists of an Agilent binary high-performance liquid chromatography (HPLC) pumps and a TSQ Vantage triple quadrupole MS/MS instrument. For each sample, 2 μL, samples from the top organic layer of in-plate liquid-liquid extraction were injected onto a Thermo Betabasic C4 column (2.1 mm×20 mm, 5 μm particle size). The samples were then eluted using the following conditions; mobile phase: methanol/water with 0.1% ammonium format=92/8 (v/v), flow rate: 1 mL/min, temperature: 25 C. Data was acquired in positive mode using a heated electrospray ionization (HESI) interface. The operational parameters for the TSQ Vantage MS/MS instrument were a spray voltage of 3000 V, capillary temperature of 280° C., vaporizer temperature 400° C., shealth gas 60 arbitrary unit, Aux gas 40 arbitrary units, S-lens 113 and collision gas 0.16 Pascals. […] (SRM) chromatograms of triolein (Q1: 902.9>Q3: 602.3) and internal standard (Q1: 902.9>Q3: 602.3) were collected for 40 sec. The peak area was integrated by Xcalibur Quan software. The ratio between the triolein generated in the reaction and spiked in internal standard were used to generate percentage inhibition and IC50 values. Compound percentage inhibition was calculated by the following formula: Inhibition %=1-[(compound response low control)/(high control low control)]×100%. Potent compounds were titrated and IC50 were calculated by 4 parameter sigmoidal curve fitting formula.
DGAT2 activity was determined by measuring the amount of enzymatic product triolein (1,2,3-Tri(cis-9-octadecenoyl)glycerol) using the membrane prep mentioned above. The assay was carried out in deep well 384 plates in a final volume of 40 μL at room temperature. The assay mixture contained the following: assay buffer (100 mM Tris.Cl, pH 7.0, 20 mM MgCl2, 5% ethanol), 25 μM of diolein, 10 μM of oleoyl-CoA and 10 ng/μL of DGAT2 membrane.

Sequence of hDGAT2 (Q96PD7 whole entry): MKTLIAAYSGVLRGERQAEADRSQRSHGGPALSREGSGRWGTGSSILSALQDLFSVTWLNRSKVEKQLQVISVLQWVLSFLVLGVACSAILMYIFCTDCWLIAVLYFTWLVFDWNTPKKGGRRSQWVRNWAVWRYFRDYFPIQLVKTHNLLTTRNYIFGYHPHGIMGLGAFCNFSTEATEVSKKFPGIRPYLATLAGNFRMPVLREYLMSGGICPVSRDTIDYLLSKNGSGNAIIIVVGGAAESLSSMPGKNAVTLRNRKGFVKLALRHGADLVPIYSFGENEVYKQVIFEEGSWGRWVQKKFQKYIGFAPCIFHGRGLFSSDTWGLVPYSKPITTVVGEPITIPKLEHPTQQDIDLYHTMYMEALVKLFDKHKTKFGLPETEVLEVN

IC50 [µM]	SMILES
3.9	COC(=O)c1cccc(-c2ccc(CNC(=O)C3CC3c3ccccc3)c3c2CCN(Cc2cccnc2)C3)c1 (stereo not drawn) [Example 99, methyl 3-(8-((2-phenylcyclopropanecarboxamido)methyl)-2-(pyridin-3-ylmethyl)-1,2,3,4-tetrahydroisoquinolin-5-yl)benzoate]
1.76	Cc1noc([C@@H]2C[C@H]2C(=O)NCc2ccc(-c3cccc(OC(F)(F)F)c3)c3c2CN(CC(=O)N2COCC2(C)C)CC3)n1 (relative stereo) [Example 103, (trans)-N-((2-(2-(4,4-dimethyloxazolidin-3-yl)-2-oxoethyl)-5-(3-(trifluoromethoxy)phenyl)-1,2,3,4-tetrahydroisoquinolin-8-yl)methyl)-2-(3-methyl-1,2,4-oxadiazol-5-yl)cyclopropanecarboxamide]
0.247	COC(=O)c1cccc(-c2ccc(CNC(=O)C3CC3c3ccccc3)c3c2CCN(Cc2ccccn2)C3)c1 (stereo not drawn) [Example 94, methyl 3-(8-((2-phenylcyclopropanecarboxamido)methyl)-2-(pyridin-2-ylmethyl)-1,2,3,4-tetrahydroisoquinolin-5-yl)benzoate]
1.54	COc1cccc(-c2ccc(CNC(=O)[C@@H]3C[C@H]3c3ccccc3)c3c2CCN(C(=O)C(O)C(F)(F)F)C3)c1 (relative stereo) [Example 119, (trans)-N-((5-(3-methoxyphenyl)-2-(3,3,3-trifluoro-2-hydroxypropanoyl)-1,2,3,4-tetrahydroisoquinolin-8-yl)methyl)-2-phenylcyclopropanecarboxamide]
3.56	COC(=O)c1cccc(-c2ccc(CNC(=O)C3CC3c3ccccc3)c3c2CCN(C(=O)c2cccnc2)C3)c1 (stereo not drawn) [Example 134, methyl 3-(2-nicotinoyl-8-((2-phenylcyclopropanecarboxamido)methyl)-1,2,3,4-tetrahydroisoquinolin-5-yl)benzoate]
7.6	Cc1noc(C2CC2C(=O)NCc2ccc(-c3cccc(OC(F)(F)F)c3)c3c2CN(CC(=O)N[C@H](C)c2ccccc2)CC3)n1 (stereo partly drawn) [Example 88, 2-(3-methyl-1,2,4-oxadiazol-5-yl)-N-((2-(2-oxo-2-(((trans)-1-phenylethyl)amino)ethyl)-5-(3-(trifluoromethoxy)phenyl)-1,2,3,4-tetrahydroisoquinolin-8-yl)methyl)cyclopropanecarboxamide]
1.15	COc1cccc(-c2ccc(CNC(=O)[C@H]3C[C@@H]3c3ccccc3)c3c2CCN(Cc2cc(F)cc(F)c2)C3)c1 (relative stereo) [Example 92, (trans)-N-((2-(3,5-difluorobenzyl)-5-(3 methoxyphenyl)-1,2,3,4-tetrahydroisoquinolin-8-yl)methyl)-2-phenylcyclopropanecarboxamide]
0.499	COc1cccc(-c2ccc(CNC(=O)[C@@H]3C[C@H]3c3ccccc3)c3c2CCN(C(=O)NC(C)(C)CC(C)(C)C)C3)c1 (relative stereo) [Example 61, 5-(3-methoxyphenyl)-8-(((trans)-2-phenylcyclopropanecarboxamido)methyl)-N-(2,4,4-trimethylpentan-2-yl)-3,4-dihydroisoquinoline-2(1H)-carboxamide]
2.1	COc1cccc(-c2ccc(CNC(=O)[C@@H]3C[C@H]3c3ccccc3)c3c2CCN(C(=O)Nc2ccncc2)C3)c1 (relative stereo) [Example 18, 5-(3-methoxyphenyl)-8-(((trans)-2-phenylcyclopropanecarboxamido)methyl)-N-(pyridin-4-yl)-3,4-dihydroisoquinoline-2(1H)-carboxamide]
0.0036	Cc1noc(C2CC2C(=O)NCc2ccc(-c3cccc(OC(F)(F)F)c3)c3c2CN(C(=O)NC(C)(C)C)CC3)n1 (stereo not drawn) [Example 1, N-(tert-butyl)-8-(((trans)-2-(3-methyl-1,2,4-oxadiazol-5-yl)cyclopropanecarboxamide)methyl)-5-(3-(trifluoromethoxy)phenyl)-3,4-dihydroisoquinoline-2(1H)-carboxamide]
0.887	COc1cccc(-c2ccc(CNC(=O)[C@@H]3C[C@H]3c3ccccc3)c3c2CCN(C(=O)C(C)(C)C)C3)c1 (relative stereo) [Example 113, (trans)-N-((5-(3-methoxyphenyl)-2-pivaloyl-1,2,3,4-tetrahydroisoquinolin-8-yl)methyl)-2-phenylcyclopropanecarboxamide]
0.832	CC(C)(C)NC(=O)N1CCc2c(-c3cccc(NS(C)(=O)=O)c3)ccc(CNC(=O)[C@@H]3C[C@H]3c3ccccc3)c2C1 (relative stereo) [Example 39, N-(tert-butyl)-5-(3-(methylsulfonamido)phenyl)-8-(((trans)-2-phenylcyclopropanecarboxamido)methyl)-3,4-dihydroisoquinoline-2(1H)-carboxamide]
3.09	COC(=O)C1CCN(C(=O)N2CCc3c(-c4cccc(OC)c4)ccc(CNC(=O)[C@@H]4C[C@H]4c4ccccc4)c3C2)CC1 [Example 63, methyl 1-(5-(3-methoxyphenyl)-8-(((trans)-2-phenylcyclopropanrcarboxamido)methyl)-1,2,3,4-tetrahydroisoquinoline-2-carbonyl)piperidine-4-carboxylate]
0.352	CC(=O)Nc1cccc(-c2ccc(CNC(=O)[C@@H]3C[C@H]3c3ccccc3)c3c2CCN(C(=O)NC(C)(C)C)C3)c1 (relative stereo) [Example 36, 5-(3-acetamidophenyl)-N-(tert-butyl)-8-(((trans)-2-phenylcyclopropanecarboxamido)methyl)-3,4-dihydroisoquinoline-2(1H)-carboxamide]
0.0202	CC(C)(C)NC(=O)N1CCc2c(-c3cccc(C(C)(C)O)c3)ccc(CNC(=O)[C@@H]3C[C@H]3c3ccccc3)c2C1 (relative stereo) [Example 52, N-(tert-butyl)-5-(3-(2-hydroxypropan-2-yl)phenyl)-8-(((trans)-2-phenylcyclopropanecarboxamido)methyl)-3,4-dihydroisoquinoline-2(1H)-carboxamide]
0.302	COc1cccc(-c2ccc(CNC(=O)[C@@H]3C[C@H]3c3ccccc3)c3c2CCN(C(=O)Nc2ccon2)C3)c1 (relative stereo) [Example 23, N-(isoxazol-3-yl)-5-(3-methoxyphenyl)-8-(((trans)-2-phenylcyclopropanecarboxamido)methyl)-3,4-dihydroisoquinoline-2(1H)-carboxamide]
0.00578	CC(C)(C)NC(=O)N1CCc2c(-c3cccc(-c4ncon4)c3)ccc(CNC(=O)C3C[C@H]3c3ccccc3)c2C1 (stereo partly drawn) [Example 51, 5-(3-(1,2,4-oxadiazol-3-yl)phenyl)-N-(tert-butyI)-8-(((trans)-2-phenylcyclopropanecarboxamido)methyl)-3,4-dihydroisoquinoline-2(1H)-carboxamide]
0.456	CCn1ccnc1CN1CCc2c(-c3cccc(OC(F)(F)F)c3)ccc(CNC(=O)C3C[C@H]3c3nc(C)no3)c2C1 (stereo partly drawn) [Example 102]
0.01	COC(=O)c1cccc(-c2ccc(CNC(=O)[C@@H]3C[C@H]3c3ccccc3)c3c2CCN(C(=O)NC2(C)CCCC2)C3)c1 (relative stereo) [Example 55, methyl 3-(2-((1-methylcyclopentyl)carbamoyl)-8-(((trans)-2 phenylcyclopropanecarboxamido)methyl)-1,2,3,4-tetrahydroisoquinolin-5-yl) benzoate]
1.84	Cc1noc([C@@H]2C[C@H]2C(=O)NCc2ccc(-c3cccc(OC(F)(F)F)c3)c3c2CN(Cc2scnc2C)CC3)n1 (relative stereo) [Example 106, (trans)-2-(3-methyl-1,2,4-oxadiazol-5-yl)-N-((2-((4-methylthiazol-5-yl)methyl)-5-(3-(trifluoromethoxy)phenyl)-1,2,3,4-tetrahydroisoquinolin-8-yl)methyl)cyclopropanecarboxamide]
0.00113	COC(=O)c1cccc(-c2ccc(CNC(=O)[C@H]3C[C@@H]3c3ccccc3)c3c2CCN(C(=O)NC2(C)CC2)C3)c1 (relative stereo) [Example 54, methyl 3-(2-((1-methylcyclopropyl)carbamoyl)-8-(((trans)-2-phenylcyclopropanecarboxamido)methyl)-1,2,3,4-tetrahydroisoquinolin-5-yl) benzoate]
